# Experimental data published in ChEMBL document CHEMBL1201861, “Genomics of Drug Sensitity in Cancer screening data, Wellcome Trust Sanger Institute”.
# How the values were obtained:
# Assay in all cases: cells
# [1] = test system: ESS-1; assay type: functional, cell-based, Homo sapiens; conditions: Homo sapiens, ESS-1;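 note: growth inhibition of human ESS-1 cells, read out by a cell viability assay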
# Description: SANGER: Inhibition of human ESS-1 cell growth in a cell viability assay.
# [2] = test system: MG-63; assay type: functional, cell-based, Homo sapiens; conditions: Homo sapiens, MG-63;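 note: growth inhibition of human MG-63 cells, read out with a cell viability assay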
# Description: SANGER: Inhibition of human MG-63 cell growth in a cell viability assay.
# [3] = test system: LN-405; assay type: functional, cell-based, Homo sapiens; conditions: Homo sapiens, LN-405
# Description: SANGER: Inhibition of human LN-405 cell growth in a cell viability assay.
# [4] = test system: NCI-H661; assay type: functional, cell-based, Homo sapiens; conditions: Homo sapiens, NCI-H661;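 note: cell viability assay read-out, IC50 being the concentration that inhibits growth of the cells by half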
# Description: SANGER: Inhibition of human NCI-H661 cell growth in a cell viability assay.
# [5] = test system: NCI-H2347; assay type: functional, cell-based, Homo sapiens; conditions: Homo sapiens, NCI-H2347;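 note: growth inhibition of the cell line, read out with a cell viability assay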
# Description: SANGER: Inhibition of human NCI-H2347 cell growth in a cell viability assay.
# [6] = test system: TCC-SUP; assay type: functional, cell-based, Homo sapiens; conditions: Homo sapiens, TCC-SUP;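 note: growth inhibition of TCC-SUP cells, read out with a cell viability assay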
# Description: SANGER: Inhibition of human TCCSUP cell growth in a cell viability assay.
# [7] = test system: HCC1395; assay type: functional, cell-based, Homo sapiens; conditions: Homo sapiens, HCC1395;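 note: growth inhibition of HCC1395 cells, read out by a cell viability assay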
# Description: SANGER: Inhibition of human HCC1395 cell growth in a cell viability assay.
# [8] = test system: KNS-42; assay type: functional, cell-based, Homo sapiens; conditions: Homo sapiens, KNS-42;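 note: growth inhibition of KNS-42 cells, read out with a cell viability assay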
# Description: SANGER: Inhibition of human KNS-42 cell growth in a cell viability assay.
# [9] = test system: no-10; assay type: functional, cell-based, Homo sapiens; conditions: Homo sapiens;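 note: growth inhibition of no-10 cells, read out with a cell viability assay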
# Description: SANGER: Inhibition of human no-10 cell growth in a cell viability assay.
# [10] = test system: KINGS-1; assay type: functional, cell-based, Homo sapiens; conditions: Homo sapiens, KINGS-1;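 note: cell viability assay measuring suppression of KINGS-1 cell growth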
# Description: SANGER: Inhibition of human KINGS-1 cell growth in a cell viability assay.
# [11] = test system: MPP-89; assay type: functional, cell-based, Homo sapiens; conditions: Homo sapiens, MPP-89;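 note: growth inhibition of human MPP-89 cells, read out with a cell viability assay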
# Description: SANGER: Inhibition of human MPP-89 cell growth in a cell viability assay.
# [12] = test system: C32; assay type: functional, cell-based, Homo sapiens; conditions: Homo sapiens, C32;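 note: cell viability assay, with IC50 reflecting inhibition of C32 cell growth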
# Description: SANGER: Inhibition of human C32 cell growth in a cell viability assay.
# [13] = test system: COR-L23; assay type: functional, cell-based, Homo sapiens; conditions: Homo sapiens, COR-L23;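 note: cell viability assay measuring how strongly compounds suppress growth of COR-L23 cells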
# Description: SANGER: Inhibition of human COR-L23 cell growth in a cell viability assay.
# [14] = test system: NCI-H2405; assay type: functional, cell-based, Homo sapiens; conditions: Homo sapiens, NCI-H2405;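 note: growth inhibition of the human cell line, read out with a cell viability assay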
# Description: SANGER: Inhibition of human NCI-H2405 cell growth in a cell viability assay.
# [15] = test system: D-247MG; assay type: functional, cell-based, Homo sapiens; conditions: Homo sapiens, D-247MG
# Description: SANGER: Inhibition of human D-247MG cell growth in a cell viability assay.
# [16] = test system: ES1; assay type: functional, cell-based, Homo sapiens; conditions: Homo sapiens, ES1;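 note: growth inhibition of ES1 cells, read out with a cell viability assay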
# Description: SANGER: Inhibition of human ES1 cell growth in a cell viability assay.
# [17] = test system: KS-1; assay type: functional, cell-based, Homo sapiens; conditions: Homo sapiens, KS-1;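 note: growth inhibition of KS-1 cells, read out with a cell viability assay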
# Description: SANGER: Inhibition of human KS-1 cell growth in a cell viability assay.
# [18] = test system: SiHa; assay type: functional, cell-based, Homo sapiens; conditions: Homo sapiens, SiHa;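 note: Viability-based readout of growth inhibition in SiHa cells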
# Description: SANGER: Inhibition of human SiHa cell growth in a cell viability assay.
# [19] = test system: ACN; assay type: functional, cell-based, Homo sapiens; conditions: Homo sapiens, ACN;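 note: growth inhibition of the human ACN cell line, read out via cell viability testing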
# Description: SANGER: Inhibition of human ACN cell growth in a cell viability assay.
# [20] = test system: C3A; assay type: functional, cell-based, Homo sapiens; conditions: Homo sapiens, C3A;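 note: growth inhibition of C3A human cells, quantified with a cell viability readout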
# Description: SANGER: Inhibition of human C3A cell growth in a cell viability assay.
# [21] = test system: J-RT3-T3-5; assay type: functional, cell-based; conditions: Homo sapiens;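 note: cell viability assay measuring growth inhibition of human J-RT3-T3-5 cells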
# Description: SANGER: Inhibition of human J-RT3-T3-5 cell growth in a cell viability assay.
# [22] = test system: TE-8; assay type: functional, cell-based, Homo sapiens; conditions: Homo sapiens, TE-8;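 note: growth inhibition of TE-8 cells, measured with a cell viability readout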
# Description: SANGER: Inhibition of human TE-8 cell growth in a cell viability assay.
# [23] = test system: SW1990; assay type: functional, cell-based, Homo sapiens; conditions: Homo sapiens, SW1990;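 note: cell growth inhibition determined with a viability assay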
# Description: SANGER: Inhibition of human SW1990 cell growth in a cell viability assay.
# [24] = test system: HCC1187; assay type: functional, cell-based, Homo sapiens; conditions: Homo sapiens, HCC1187;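 note: growth inhibition of HCC1187 cells, read out with a cell viability assay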
# Description: SANGER: Inhibition of human HCC1187 cell growth in a cell viability assay.
# [25] = test system: SF-126; assay type: functional, cell-based, Homo sapiens; conditions: Homo sapiens, SF-126;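 note: growth inhibition of human SF126 cells, read out with a cell viability assay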
# Description: SANGER: Inhibition of human SF126 cell growth in a cell viability assay.
# [26] = test system: COLO-792; assay type: functional, cell-based, Homo sapiens; conditions: Homo sapiens, COLO-792
# Description: SANGER: Inhibition of human COLO-792 cell growth in a cell viability assay.
# [27] = test system: SAOS-2; assay type: functional, cell-based, Homo sapiens; conditions: Homo sapiens, SAOS-2;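 note: growth inhibition of human Saos-2 cells determined by a cell viability assay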
# Description: SANGER: Inhibition of human Saos-2 cell growth in a cell viability assay.
# [28] = test system: SW872; assay type: functional, cell-based, Homo sapiens; conditions: Homo sapiens, SW872;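 note: growth inhibition of SW872 cells, read out by a viability assay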
# Description: SANGER: Inhibition of human SW872 cell growth in a cell viability assay.
# [29] = test system: CAKI-1; assay type: functional, cell-based, Homo sapiens; conditions: Homo sapiens, CAKI-1;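 note: growth inhibition of CAKI-1 cells, measured by a cell viability assay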
# Description: SANGER: Inhibition of human CAKI-1 cell growth in a cell viability assay.
# [30] = test system: NCI-H358; assay type: functional, cell-based, Homo sapiens; conditions: Homo sapiens, NCI-H358;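 note: growth inhibition of NCI-H358 human cells, read out with a cell viability assay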
# Description: SANGER: Inhibition of human NCI-H358 cell growth in a cell viability assay.
# [31] = test system: NCI-H2087; assay type: functional, cell-based, Homo sapiens; conditions: Homo sapiens, NCI-H2087;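 note: growth inhibition determined with a cell viability readout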
# Description: SANGER: Inhibition of human NCI-H2087 cell growth in a cell viability assay.
# [32] = test system: SW626; assay type: functional, cell-based, Homo sapiens; conditions: Homo sapiens, SW626;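 note: growth inhibition of SW626 cells, measured with a cell viability assay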
# Description: SANGER: Inhibition of human SW626 cell growth in a cell viability assay.
# [33] = test system: EOL1; assay type: functional, cell-based; conditions: Homo sapiens;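 note: growth inhibition of EoL-1 cells, read out by a cell viability assay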
# Description: SANGER: Inhibition of human EoL-1-cell cell growth in a cell viability assay.
# [34] = test system: NKM-1; assay type: functional, cell-based; conditions: Homo sapiens;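 note: growth inhibition of NKM-1 cells, read out with a cell viability assay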
# Description: SANGER: Inhibition of human NKM-1 cell growth in a cell viability assay.
# [35] = test system: NCI-H292; assay type: functional, cell-based, Homo sapiens; conditions: Homo sapiens, NCI-H292;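 note: growth inhibition of NCI-H292 cells, read out with a cell viability assay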
# Description: SANGER: Inhibition of human NCI-H292 cell growth in a cell viability assay.
# [36] = test system: RVH-421; assay type: functional, cell-based, Homo sapiens; conditions: Homo sapiens, RVH-421
# Description: SANGER: Inhibition of human RVH-421 cell growth in a cell viability assay.
# [37] = test system: NCI-H82; assay type: functional, cell-based; conditions: Homo sapiens;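 note: growth inhibition of NCI-H82 cells, measured with a cell viability readout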
# Description: SANGER: Inhibition of human NCI-H82 cell growth in a cell viability assay.
# [38] = test system: BPH-1; assay type: functional, cell-based, Homo sapiens; conditions: Homo sapiens, BPH-1;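 note: cell viability assay measuring growth inhibition of human BPH-1 cells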
# Description: SANGER: Inhibition of human BPH-1 cell growth in a cell viability assay.
# [39] = test system: CAL-85-1; assay type: functional, cell-based; conditions: Homo sapiens;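 note: growth inhibition of human CAL-85-1 cells, read out with a cell viability assay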
# Description: SANGER: Inhibition of human CAL-85-1 cell growth in a cell viability assay.
# [40] = test system: JVM-3; assay type: functional, cell-based; conditions: Homo sapiens;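 note: growth inhibition of human JVM-3 cells, read out with a cell viability assay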
# Description: SANGER: Inhibition of human JVM-3 cell growth in a cell viability assay.
# [41] = test system: CAL-62; assay type: functional, cell-based, Homo sapiens; conditions: Homo sapiens, CAL-62;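 note: growth inhibition of CAL-62 cells, read out with a cell viability assay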
# Description: SANGER: Inhibition of human CAL-62 cell growth in a cell viability assay.
# [42] = test system: NB5; assay type: functional, cell-based, Homo sapiens; conditions: Homo sapiens, NB5;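 note: growth inhibition of NB5 cells, read out as cell viability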
# Description: SANGER: Inhibition of human NB5 cell growth in a cell viability assay.
# [43] = test system: AN3-CA; assay type: functional, cell-based; conditions: Homo sapiens;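 note: growth inhibition of human AN3-CA cells measured by a cell viability assay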
# Description: SANGER: Inhibition of human AN3-CA cell growth in a cell viability assay.
# [44] = test system: LB373-MEL-D; assay type: functional, cell-based, Homo sapiens; conditions: Homo sapiens, LB373-MEL-D;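 note: growth inhibition of the cell line, read out in a cell viability assay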
# Description: SANGER: Inhibition of human LB373-MEL-D cell growth in a cell viability assay.
# [45] = test system: COLO-824; assay type: functional, cell-based, Homo sapiens; conditions: Homo sapiens, COLO-824
# Description: SANGER: Inhibition of human COLO-824 cell growth in a cell viability assay.
# [46] = test system: KYSE-70 cell line; assay type: functional, cell-based, Homo sapiens; conditions: Homo sapiens, KYSE-70;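 note: cell viability assay read-out, with IC50 expressing suppression of KYSE-70 cell growth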
# Description: SANGER: Inhibition of human KYSE-70 cell growth in a cell viability assay.
# [47] = test system: OCUB-M; assay type: functional, cell-based, Homo sapiens; conditions: Homo sapiens, OCUB-M;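 note: growth inhibition of the cancer cell line, read out through a cell viability assay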
# Description: SANGER: Inhibition of human OCUB-M cell growth in a cell viability assay.
# [48] = test system: LAN-6; assay type: functional, cell-based, Homo sapiens; conditions: Homo sapiens, LAN-6;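 note: growth inhibition of LAN-6 cells, determined with a cell viability assay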
# Description: SANGER: Inhibition of human LAN-6 cell growth in a cell viability assay.
# [49] = test system: SK-LU-1; assay type: functional, cell-based, Homo sapiens; conditions: Homo sapiens, SK-LU-1;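 note: cell viability assay measuring growth inhibition of human SK-LU-1 cells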
# Description: SANGER: Inhibition of human SK-LU-1 cell growth in a cell viability assay.
# [50] = test system: OVCAR-8; assay type: functional, cell-based, Homo sapiens; conditions: Homo sapiens, OVCAR-8;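 note: growth inhibition of human OVCAR-8 cells, read out by a cell viability assay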
# Description: SANGER: Inhibition of human OVCAR-8 cell growth in a cell viability assay.
# [51] = test system: SAS; assay type: functional, cell-based, Homo sapiens; conditions: Homo sapiens, SAS;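 note: growth inhibition of SAS cells, read out with a cell viability assay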
# Description: SANGER: Inhibition of human SAS cell growth in a cell viability assay.
compound,measurement,setting,value
CCOc1nc(NC(=O)Cc2cc(OC)ccc2OC)cc(N)c1C#N,IC50,[1],> 10 µM
same,IC50,[2],> 10 µM
same,IC50,[3],> 10 µM
same,IC50,[4],> 10 µM
same,IC50,[5],> 10 µM
same,IC50,[6],> 10 µM
same,IC50,[7],> 10 µM
same,IC50,[8],> 10 µM
same,IC50,[9],> 10 µM
same,IC50,[10],> 10 µM
same,IC50,[11],> 10 µM
same,IC50,[12],> 10 µM
same,IC50,[13],> 10 µM
same,IC50,[14],> 10 µM
same,IC50,[15],> 10 µM
same,IC50,[16],> 10 µM
same,IC50,[17],> 10 µM
same,IC50,[18],> 10 µM
same,IC50,[19],> 10 µM
same,IC50,[20],> 10 µM
same,IC50,[21],> 10 µM
same,IC50,[22],> 10 µM
same,IC50,[23],> 10 µM
same,IC50,[24],> 10 µM
same,IC50,[25],> 10 µM
same,IC50,[26],> 10 µM
same,IC50,[27],> 10 µM
same,IC50,[28],> 10 µM
same,IC50,[29],> 10 µM
same,IC50,[30],> 10 µM
same,IC50,[31],> 10 µM
same,IC50,[32],> 10 µM
same,IC50,[33],> 10 µM
same,IC50,[34],> 10 µM
same,IC50,[35],> 10 µM
same,IC50,[36],> 10 µM
same,IC50,[37],> 10 µM
same,IC50,[38],> 10 µM
same,IC50,[39],> 10 µM
same,IC50,[40],> 10 µM
same,IC50,[41],> 10 µM
same,IC50,[42],> 10 µM
same,IC50,[43],> 10 µM
same,IC50,[44],> 10 µM
same,IC50,[45],> 10 µM
same,IC50,[46],> 10 µM
same,IC50,[47],> 10 µM
same,IC50,[48],> 10 µM
same,IC50,[49],> 10 µM
same,IC50,[50],> 10 µM
same,IC50,[51],> 10 µM
COC(=O)CNC(=O)C(=O)OC,IC50,[1],198 µM
same,IC50,[2],144 µM
same,IC50,[3],1610 µM
same,IC50,[4],2280 µM
same,IC50,[5],121 µM
same,IC50,[6],432 µM
same,IC50,[7],1540 µM
same,IC50,[8],229 µM
same,IC50,[9],995 µM
same,IC50,[10],585 µM
same,IC50,[11],1280 µM
same,IC50,[12],> 4000 µM
same,IC50,[13],1880 µM
same,IC50,[14],261 µM
same,IC50,[15],2410 µM
same,IC50,[16],1260 µM
same,IC50,[17],11.3 µM
same,IC50,[18],1180 µM
same,IC50,[19],128 µM
same,IC50,[20],159 µM
same,IC50,[21],1740 µM
same,IC50,[22],2640 µM
same,IC50,[23],441 µM
same,IC50,[24],> 4000 µM
same,IC50,[25],220 µM
same,IC50,[26],> 4000 µM
same,IC50,[27],193 µM
same,IC50,[28],603 µM
same,IC50,[29],289 µM
same,IC50,[30],103 µM
same,IC50,[31],108 µM
same,IC50,[32],1840 µM
same,IC50,[33],122 µM
same,IC50,[34],126 µM
same,IC50,[35],103 µM
same,IC50,[36],1310 µM
same,IC50,[37],> 4000 µM
same,IC50,[38],276 µM
same,IC50,[39],108 µM
same,IC50,[40],> 4000 µM
same,IC50,[41],1050 µM
same,IC50,[42],> 4000 µM
same,IC50,[43],209 µM
same,IC50,[44],710 µM
same,IC50,[45],2400 µM
same,IC50,[46],551 µM
same,IC50,[47],> 4000 µM
same,IC50,[48],2080 µM
same,IC50,[49],66 µM
same,IC50,[50],593 µM
same,IC50,[51],237 µM
